Tests used:
human recombinant CRF-BP = biological target: T1, human recombinant CRF-BP (Homo sapiens, UniProt P24387); experiment: LIRMA: displacement of 125I-h/rCRF from CRF-BP, Ki; type: binding; conditions: inhibitory binding affinity constant (Ki)
T1 construct: made in house
T1 sequence (P24387 25-322): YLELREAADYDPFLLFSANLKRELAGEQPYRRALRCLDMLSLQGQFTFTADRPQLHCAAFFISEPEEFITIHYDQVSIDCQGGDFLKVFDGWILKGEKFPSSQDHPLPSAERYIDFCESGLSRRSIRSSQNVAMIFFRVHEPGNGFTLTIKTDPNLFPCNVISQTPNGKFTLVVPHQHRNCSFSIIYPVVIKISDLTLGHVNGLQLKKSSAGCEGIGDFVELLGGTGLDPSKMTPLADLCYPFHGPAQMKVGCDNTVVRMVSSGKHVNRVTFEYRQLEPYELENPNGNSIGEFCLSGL
Protocol: In LIRMA CRF-BP isolated from brain tissue, serum, or cells expressing a recombinant form, is added to wells of a 96-well plate, to small polypropylene microfuge tubes, or to glass borosilicate tubes in a binding buffer (0.02% NP-40 in 50 mM phosphate-buffered saline). ^125 I-h/rCRF (New England Nuclear) and the candidate ligand inhibitor at 10 μM are added and the reaction is incubated for 1 hour at room temperature. An appropriately diluted anti-CRF-BP antibody, such as a rabbit anti-hCRF-BP (Potter et al., Proc. Natl. Acad. Sci. USA 89:4192-4196, 1992) is added to each tube, and after further incubation, bound complexes are precipitated by the further addition of a goat anti-rabbit antibody. The precipitate containing ^125 I-CRF is collected by centrifugation and the amount of radioactivity in the pellet is determined by a gamma counter. If the candidate ligand inhibitor displaces CRF from CRF-BP, the pellets will contain less radioactivity in comparison to controls in which no candidate peptide is added. Maximum inhibition (i.e., 100%) of the binding of ^125 I-h/rCRF to the CRF-BP is defined by the amount of radioactivity left in the pellets after incubation with 10 μM of the CRF-BP peptide ligand h/rCRF (6-33). Thus, the binding potency of the candidate ligand inhibitor will be measured relative to the potency of the standard h/rCRF (6-33).
Thus, a ligand having a Ki of less than that of hCRF will bind more strongly to hCRF-BP than will hCRF itself, and a ligand having a higher value will have a relatively lower binding affinity.
The assay is performed in 600 μl polypropylene microfuge tubes or a 96-well plate. First, 50 μl of a 250 ng/ml of purified recombinant CRF-BP is added to 150 μl of PBS binding buffer (50 mM sodium phosphate, 0.15M NaCl, and 0.02% NP-40). Next, ^125 I-h/r CRF at a final concentration of 200 pM and 50 μl of a 10-100 μM concentration of the ligand inhibitor are added and incubated for 1 hour at room temperature. To the reaction, 50 μl of anti-CRF-BP antibody, 5144, diluted 1:1000 with assay buffer is added to each tube and allowed to bind for a further 1 hour at room temperature. The total volume in all tubes is adjusted to 300 μl with assay buffer. Bound complexes are precipitated by the addition of 200 μl of preprecipitated goat anti-rabbit (GAR) second antibody at 1:20 in 1% normal rabbit serum, 4% PEG, 50 mM sodium phosphate, 0.1% sodium azide, followed by incubation for 1 hour at room temperature. The antibody-bound ^125 I-CRF precipitate is then collected by centrifugation (3000×g) at 4° C. for 20 minutes in a Beckman GS-15R centrifuge. Using a Beckman Biomer 1000 robotic workstation, the tubes are aspirated and washed once with 600 μl of PBS plus 0.02% NP-40. Tubes containing the pellets are then transferred to 12×74 mm counting tubes and counted in a gamma counter.
Inhibitory binding affinity constant (Ki) values are determined using the method of Munson et al., Anal. Biochem. 107:220, 1980.

[1] = human, in vivo; cited from earlier work
[2] = test system: CRF receptors (rat anterior pituitary cells); experiment: ACTH secretion from rat anterior pituitary cells (CRF agonist/antagonist activity); type: cell-based; conditions: for CRF agonist activity relative to standard oCRF: oCRF arbitrarily 1.0
Protocol: Candidate ligand inhibitors may be screened for their ability to displace CRF from the CRF/CRF-BP complex by biological assay or by in vitro assay. One suitable biological assay is the measurement of ACTH release from cultured pituitary cells. This assay is performed in the following manner. Anterior pituitary glands from rats are washed six times with sterile HEPES buffer and transferred to a solution containing collagenase. After subsequent transfer to a 25 ml Bellco dispersion flask, the pituitaries are stirred for 30 minutes at 37° C., triturated, incubated for a further 30 minutes, and again triturated. The partially dispersed cells are then collected by centrifugation. The cell pellet is resuspended in 10 ml of neuraminidase and again collected by centrifugation. The pellet is reconstituted in 25 ml of BBM-P (BBM (Irvine Scientific) plus 100 μg/L, cortisol, 1 μg/L insulin, 0.1 μg/L EGF2, 0.4 μg/L T3, 0.7 μg/L PTH, 10 μg/L glucagon, and 2% fetal bovine serum), centrifuged again, and the resultant pellet is finally reconstituted in BBM-P. The cells are then plated at a density of 50,000-100,000/well in a 48 well plate and incubated for 2 days. On the day of assay the cells are washed once with BBM-T in preparation for stimulation with the peptide candidates or CRF. Cells are stimulated with a maximally stimulating dose of h/rCRF (1 nM) and ACTH release is measured by RIA or immunoradiometric assay. When a blocking concentration of CRF-BP is added, the amount of ACTH that is released is reduced and expressed as a fraction of the maximal release. The ligand inhibitor is added at various doses. The potency of the peptide in displacing CRF from CRF-BP is measured by the amount of ACTH release expressed as a fraction of the maximal release caused by CRF given alone.
An additional assay using rat anterior pituitary cells to measure ACTH secretion can be carried out to determine whether a ligand inhibitor functions as a CRF agonist of hCRF receptors. […] Antagonistic action may be determined by performing the assay in the presence of a challenge dose of CRF. […]

human CRF-BP = conditions: cited from earlier work

Compound | Ki (human recombinant CRF-BP) [nM] | also measured
O=c1c(C=Nc2nc3ccccc3[nH]2)c(O)n(CCc2cccs2)c(=S)n1CCc1cccs1 [Compound 97] | < 50 | 
CCCn1c(O)c(C=Nc2nnc(C)s2)c(=O)n(CCC)c1=S [Compound 103] | < 100 | 
CCn1c(=O)c(C=Nc2nnc(C(F)(F)F)s2)c(O)n(CCc2ccccc2)c1=S [Compound 104-1] | < 100 | 
CCn1c(O)c(C=Nc2nnc(C(F)(F)F)s2)c(=O)n(CC)c1=S [Compound 104] | < 100 | 
O=c1c(C=Nc2nnc(C(F)(F)F)s2)c(O)n(Cc2ccccc2)c(=S)n1Cc1ccccc1 [Compound 105] | < 100 | 
CCCn1c(O)c(C=Nc2nnc(C(F)(F)F)s2)c(=O)n(CCC)c1=S [Compound 106] | < 100 | 
CCn1c(=O)c(C=Nc2nncs2)c(O)n(CCc2ccccc2)c1=S [Compound 110-1] | < 50 | 
O=c1c(C=Nc2nncs2)c(O)n(Cc2ccccc2)c(=S)n1Cc1ccccc1 [Compound 111] | < 50 | 
CCSc1nnc(N=Cc2c(O)n(Cc3ccccc3)c(=S)n(Cc3ccccc3)c2=O)s1 [Compound 115] | < 100 | 
CCCn1c(O)c(C=Nc2nnc(SCC)s2)c(=O)n(CCC)c1=S [Compound 116] | < 100 | 
CCn1c(=O)c(C=Nc2ncc(C)s2)c(O)n(CCc2ccccc2)c1=S [Compound 117-1] | < 100 | 
Cc1cnc(N=Cc2c(O)n(Cc3ccccc3)c(=S)n(Cc3ccccc3)c2=O)s1 [Compound 118] | < 50 | 
CCCCCCCCCCCCCCCCSc1nnc(N=Cc2c(O)n(Cc3ccccc3)c(=S)n(Cc3ccccc3)c2=O)s1 [Compound 121] | < 50 | 
CCn1c(=O)c(C=Nc2nc(N(Cc3ccccc3)c3ccccc3)ns2)c(O)n(CCc2ccccc2)c1=S [Compound 131-1] | < 50 | 
O=c1c(C=Nc2nc(N(Cc3ccccc3)c3ccccc3)ns2)c(O)n(Cc2ccccc2)c(=S)n1Cc1ccccc1 [Compound 132] | < 50 | 
CCCn1c(O)c(C=Nc2nc(N(Cc3ccccc3)c3ccccc3)ns2)c(=O)n(CCC)c1=S [Compound 133] | < 50 | 
O=c1c(C=Nc2ncc(Br)s2)c(O)n(Cc2ccccc2)c(=S)n1Cc1ccccc1 [Compound 140] | < 100 | 
CCCn1c(O)c(C=Nc2nnc(CC)s2)c(=O)n(CCC)c1=S [Compound 150] | < 100 | 
Cc1cnc(N=Cc2c(O)n(Cc3cccs3)c(=S)n(Cc3cccs3)c2=O)s1 [Compound 157] | < 50 | 
CCCn1c(O)c(C=Nc2nc3c(s2)CCC3)c(=O)n(CCC)c1=S [Compound 172] | < 50 | 
Nc1c2c(nc3ccccc13)CCCC2 [Tacrine] |  | memory improvement in Alzheimer's patients [1]: only marginal memory improvement; side effects [1]: elevating liver enzymes
CC(NC(C)(C)C)C(=O)c1cccc(Cl)c1 (centres unmarked) [bupropion] |  | side effects [1]: convulsions
CNCCC(Oc1ccc(C(F)(F)F)cc1)c1ccccc1 (centres unmarked) [fluoxetine] |  | side effects [1]: suicidality
hCRF (6-33): CRF-BP peptide ligand h/rCRF (6-33) (ISLDLTFHLLREVLEMARAEQLAQQAHS; Corticoliberin; UniProt P06850 159-186, looked up, fragment) |  | CRF antagonist activity [2]: does not exhibit substantial CRF antagonist activity; CRF agonist activity relative to standard oCRF [2]: less than 0.1%
hCRF (9-33): The peptide hCRF (9-33) (DLTFHLLREVLEMARAEQLAQQAHS; Corticoliberin; UniProt P06850 162-186, looked up, fragment) |  | CRF agonist activity relative to standard oCRF [2]: less than 0.01%
oCRF: the standard oCRF, which is arbitrarily considered as 1.0 |  | affinity for CRF-BP (human CRF-BP): low affinity
sauvagine |  | affinity for CRF-BP (human CRF-BP): bind CRF-BP with high affinity

— patent publication US5959109A, “Compounds and methods for increasing endogenous levels of corticotropin-releasing factor” (Neurocrine Biosciences, Inc., priority 1996, dated 1999)
